Measured values: patent US8034799B2, “Preventing and/or treating cardiovascular disease and/or associated heart failure” (Philera New Zealand Limited, priority 2002, dated 2011)
Read-outs that look alike come from different tables or passages of the source.

Assays:
[1] = system: STZ diabetic and normal Wistar rats; conditions: for Heart weight / Heart weight (g)/BW (g) / Left Ventricular wall thickness / Left Ventricular wall thickness per BW: mean ± SD
[2] = system: diabetic (STZ) and nondiabetic male Wistar rats; conditions: for Cu content of heart tissue / Fe content of heart tissue: trientine treated
Experimental: (§1) Following surgery and a 20 min stabilization period, the experimental protocol was started. Trientine was administered intravenously over 60 s in hourly doses of increasing concentration (0.1, 1.0, 10 and 100 mg·kg^−1 in 75 μl saline followed by 125 μl saline flush). Control animals received an equivalent volume of saline. Urine was collected in 15 min aliquots throughout the experiment in pre-weighed polyethylene epindorph tubes. At the end of the experiment a terminal blood sample was taken by cardiac puncture and the separated serum stored at −80° C. until future analysis. Hearts were removed through a rapid mid-sternal thoracotomy and processed as described below.
Cu, Fe and Zn in tissue digests were also determined at Hill Laboratories (Hamilton, New Zealand) using either a PE Sciex Elan-6000 or PE Sciex Elan-6100 DRC ICP-MS.
Heart: Following removal from the animal, the heart was cleaned of excess tissue, rinsed in buffer to remove excess blood, blotted dry and a wet ventricular weight recorded. Using titanium instruments a segment of left ventricular muscle was dissected and placed in a pre-weighed 5.0 ml polystyrene tube. The sample was freeze-dried overnight to constant weight before 0.45 ml of 69% Aristar grade HNO3 was added. The sample tube was heated in a water bath at 65° C. for 60 minutes. The sample was brought to 4.5 ml with Milli-Q H2O. The resulting solution was diluted 2:1 in order to reduce the HNO3 concentration below the maximum permitted for ICP-MS analysis.

[3] = system: diabetic (STZ) and nondiabetic male Wistar rats
Source text: Nondiabetic animals received an equivalent volume of saline.
All animals were fasted overnight prior to surgery but continued to have ad libitum access to deionized water. […] The femoral artery and vein were cannulated with a solid-state blood pressure transducer (Mikrotip™ 1.4F, Millar Instruments, Texas, USA) and a saline filled PE 50 catheter respectively. The ureters were exposed via a midline abdominal incision, cannulated using polyethylene catheters (external diameter 0.9 mm, internal diameter 0.5 mm) and the wound sutured closed. The trachea was cannulated and the animal ventilated at 70-80 breaths·min^−1 with air supplemented with O2 (Pressure Controlled Ventilator, Kent Scientific, Connecticut, USA). The respiratory rate and end-tidal pressure (10-15 cm H2O) were adjusted to maintain end-tidal CO2 at 35-40 mm Hg (SC-300 CO2 Monitor, Pryon Corporation, Wisconsin, USA). Body temperature was maintained at 37° C. throughout surgery and the experiment by a heating pad. Estimated fluid loss was replaced with intravenous administration of 154 mmol·l^−1 NaCl solution at a rate of 5 ml·kg^−1·h^−1.
as §1
Mean arterial pressure (MAP), heart rate (HR, derived from the MAP waveform) oxygen saturation (Nonin 8600V Pulse Oximeter, Nonin Medical Inc., Minnesota, USA) and core body temperature, were all continuously monitored throughout the experiment using a PowerLab/16s data acquisition module (AD Instruments, Australia).

[4] = system: diabetic (STZ) and nondiabetic male Wistar rats; conditions: for Renal clearance Cu / Renal clearance Fe / Serum Cu / Serum Fe: trientine; for Renal clearance Cu / Renal clearance Fe: final hour of experiment; for Serum Cu / Serum Fe: terminal blood sample
Experimental: as §1
Serum: Terminal blood samples were centrifuged and serum treated and stored as per urine until analysis. From the trace metal content of serum from the terminal blood sample and urine collected over the final hour of the experiment, renal clearance was calculated using the following equation: renal clearance of trace metal=(a) the concentration of metal in urine (μg·μl^−1) times (b) the rate of urine flow (μl·min^−1), divided by (c) the concentration of metal in serum (μg·μl^−1)

[5] = system: STZ diabetic and normal Wistar rats
Experimental: On the last day of the experiment, animals were anesthetized (5% halothane and 2 L·min^−1 O2), and heparin (500 IU·kg^−1) (Weddel Pharmaceutical Ltd., London) administered intravenously via tail vein. […] Hearts were then placed in the isolated perfused working heart apparatus.
The aortic root of the heart was immediately ligated to the aortic cannula of the perfusion apparatus. Retrograde (Langendorff) perfusion at a hydrostatic pressure of 100 cm H2O and at 37° C. was established and continued for 5 min while cannulation of the left atrium via the pulmonary vein was completed. The non-working (Langendorff) preparation was then converted to the working heart model by switching the supply of perfusate buffer from the aorta to the left atrium at a filling pressure of 10 cm H2O. […] The perfusion solution was Krebs-Henseleit bicarbonate buffer (mM: KCl 4.7, CaCl2 2.3, KH2PO4 1.2, MgSO4 1.2, NaCl 118, and NaHCO3 25), pH 7.4 containing 11 mM glucose and it was continuously gassed with 95% O2:5% CO2. The buffer was also continuously filtered in-line (initial 8 μm, following 0.4 μm cellulose acetate filters; Sartorius, Germany). The temperature of the entire perfusion apparatus was maintained by water jackets and buffer temperature was continuously monitored and adjusted to maintain hearts at 37° C. throughout perfusion.
A modified 24 g plastic intravenous cannula (Becton Dickson, Utah, USA) was inserted into the left ventricle via the apex of the heart using the normal introducer-needle. This cannula was subsequently attached to a SP844 piezo-electric pressure transducer (AD Instruments) to continuously monitor left ventricular pressure. Aortic pressure was continuously monitored through a side arm of the aortic cannula with a pressure transducer (Statham Model P23XL, Gould Inc., CA, USA). The heart was paced (Digitimer Ltd, Heredfordshire, England) at a rate of 300 bpm by means of electrodes attached to the aortic and pulmonary vein cannulae using supra-threshold voltages with pulses of 5-ms duration from the square wave generator.

diabetic Wistar rats = conditions: six months of treatment
[6] = STZ/D7 (diabetic, trientine weeks 7-13)
[7] = Sham/D7 (non-diabetic, trientine weeks 7-13)
[8] = diabetic and nondiabetic animals

**Q.** What does the source list for NCCNCCNCCN [trientine, N,N′-Bis(2-aminoethyl)-1,2-ethanedi-amine]?
**A.** Heart weight [1, 6]: 1.18 ± 0.24 g; Heart weight (g)/BW (g) [1, 6]: 0.0041 ± 0.0005^; Left Ventricular wall thickness [1, 6]: 3.79 ± 0.52 mm; Left Ventricular wall thickness per BW [1, 6]: 0.0127 ± 0.0027^ (mm)/(g); Heart weight [1, 7]: 1.58 ± 0.05 g; Heart weight (g)/BW (g) [1, 7]: 0.0028 ± 0.0001; Left Ventricular wall thickness [1, 7]: 4.03 ± 0.1 mm; Left Ventricular wall thickness per BW [1, 7]: 0.0072 ± 0.0003 (mm)/(g); heart:body weight ratio, treated versus untreated diabetic animals ([1]; diabetic animals, trientine weeks 7-13): small but significant improvement; ventricular wall thickness:bodyweight ratio, treated versus non-treated diabetics ([1]; did not reach significance): trend toward improved; blood glucose profile, treated versus untreated comparison group ([1]; either treated group (STZ/D7, Sham/D7), p=ns): no difference; effect of drug on cardiac content of iron and copper ([2]; acute i.v. administration): nor any effect of drug; content of copper in cardiac tissue, diabetic versus nondiabetic animals ([2]; animals receiving saline or trientine): no significant difference; Cu content of heart tissue ([2]; diabetic): 24.7 ± 1.5 μg · g^−1 dry tissue; Fe content of heart tissue ([2]; diabetic): 186 ± 46 μg · g^−1 dry tissue; Cu content of heart tissue ([2]; nondiabetic): 27.1 ± 1.0 μg · g^−1 dry tissue; Fe content of heart tissue ([2]; nondiabetic): 235 ± 39 μg · g^−1 dry tissue; adverse cardiovascular effects ([3]; after acute administration, 0.1-100 mg·kg^−1 i.v.): no adverse cardiovascular effects; body temperature and oxygen saturation ([3]; all animals throughout the experiment): remained stable; time for MAP to return to pre-dose levels ([3]; highest dose (100 mg·kg^−1 i.v.)): ≤ 10 min; maximum decrease in MAP ([3]; highest dose (100 mg·kg^−1 i.v.), for the 2 min following administration): 19±4 mm Hg; MAP and HR during infusion ([3]; i.v. hourly increasing doses, all doses except the highest, diabetic and nondiabetic rats): no effect; serum content or renal clearance of iron, effect of drug [4, 8]: no effect; serum copper content, drug versus saline [4, 8]: no significant difference; renal clearance of copper, drug versus saline ([4]; diabetic animals): significant increase; Renal clearance Cu ([4]; diabetic, n = 6): *28.5 ± 4.8 μl · min^−1; Renal clearance Fe ([4]; diabetic, n = 6): 0.25 ± 0.07 µL/min; Serum Cu ([4]; diabetic, n = 6): 7.56 ± 0.06 μg · μl^−1 × 10^−4; Serum Fe ([4]; diabetic, n = 6): 35.7 ± 7.98 μg · μl^−1 × 10^−4; increase in renal clearance of copper, drug versus saline ([4]; nondiabetic animals (P=0.056)): not statistically significant; Renal clearance Cu ([4]; nondiabetic, n = 4): 19.9 ± 6.4 µL/min; Renal clearance Fe ([4]; nondiabetic, n = 4): 0.46 ± 0.22 µL/min; Serum Cu ([4]; nondiabetic, n = 4): 7.11 ± 0.41 μg · μl^−1 × 10^−4; Serum Fe ([4]; nondiabetic, n = 4): 33.6 ± 1.62 μg · μl^−1 × 10^−4; Percentage functioning at each afterload ([5]; STZ/D7 (diabetic, trientine weeks 7-13), afterload 55.9 mmHg): 100%; Number surviving (aortic flow >0 mls/min) ([5]; STZ/D7 (diabetic, trientine weeks 7-13, N 8), afterload 55.9 mmHg): 8; Number surviving (aortic flow >0 mls/min) ([5]; STZ/D7, afterload 61.8 mmHg): 8; Percentage functioning at each afterload ([5]; STZ/D7, afterload 61.8 mmHg): 100%; Number surviving (aortic flow >0 mls/min) ([5]; STZ/D7, afterload 67.7 mmHg): 8; Percentage functioning at each afterload ([5]; STZ/D7, afterload 67.7 mmHg): 100%; Number surviving (aortic flow >0 mls/min) ([5]; STZ/D7, afterload 71.4 mmHg): 8; Percentage functioning at each afterload ([5]; STZ/D7, afterload 71.4 mmHg): 100%; Number surviving (aortic flow >0 mls/min) ([5]; STZ/D7, afterload 77.2 mmHg): 8; Percentage functioning at each afterload ([5]; STZ/D7, afterload 77.2 mmHg): 100%; Number surviving (aortic flow >0 mls/min) ([5]; STZ/D7, afterload 83.1 mmHg): 8; Percentage functioning at each afterload ([5]; STZ/D7, afterload 83.1 mmHg): 100%; Number surviving (aortic flow >0 mls/min) ([5]; STZ/D7, afterload 88.3 mmHg): 7; Percentage functioning at each afterload ([5]; STZ/D7, afterload 88.3 mmHg): 88%; Number surviving (aortic flow >0 mls/min) ([5]; STZ/D7, afterload 94.9 mmHg): 6; Percentage functioning at each afterload ([5]; STZ/D7, afterload 94.9 mmHg): 75%; Number surviving (aortic flow >0 mls/min) ([5]; STZ/D7, afterload 100.8 mmHg): 5; Percentage functioning at each afterload ([5]; STZ/D7, afterload 100.8 mmHg): 63%; Number surviving (aortic flow >0 mls/min) ([5]; STZ/D7, afterload 106.7 mmHg): 1; Percentage functioning at each afterload ([5]; STZ/D7, afterload 106.7 mmHg): 13%; Percentage functioning at each afterload ([5]; Sham/D7 (non-diabetic, trientine weeks 7-13), afterload 55.9 mmHg): 100%; Number surviving (aortic flow >0 mls/min) ([5]; Sham/D7 (non-diabetic, trientine weeks 7-13, N 11), afterload 55.9 mmHg): 11; Number surviving (aortic flow >0 mls/min) ([5]; Sham/D7, afterload 61.8 mmHg): 11; Percentage functioning at each afterload ([5]; Sham/D7, afterload 61.8 mmHg): 100%; Number surviving (aortic flow >0 mls/min) ([5]; Sham/D7, afterload 67.7 mmHg): 11; Percentage functioning at each afterload ([5]; Sham/D7, afterload 67.7 mmHg): 100%; Number surviving (aortic flow >0 mls/min) ([5]; Sham/D7, afterload 71.4 mmHg): 11; Percentage functioning at each afterload ([5]; Sham/D7, afterload 71.4 mmHg): 100%; Number surviving (aortic flow >0 mls/min) ([5]; Sham/D7, afterload 77.2 mmHg): 11; Percentage functioning at each afterload ([5]; Sham/D7, afterload 77.2 mmHg): 100%; Number surviving (aortic flow >0 mls/min) ([5]; Sham/D7, afterload 83.1 mmHg): 11; Percentage functioning at each afterload ([5]; Sham/D7, afterload 83.1 mmHg): 100%; Number surviving (aortic flow >0 mls/min) ([5]; Sham/D7, afterload 88.3 mmHg): 11; Percentage functioning at each afterload ([5]; Sham/D7, afterload 88.3 mmHg): 100%; Number surviving (aortic flow >0 mls/min) ([5]; Sham/D7, afterload 94.9 mmHg): 11; Percentage functioning at each afterload ([5]; Sham/D7, afterload 94.9 mmHg): 100%; Number surviving (aortic flow >0 mls/min) ([5]; Sham/D7, afterload 100.8 mmHg): 11; Percentage functioning at each afterload ([5]; Sham/D7, afterload 100.8 mmHg): 100%; Number surviving (aortic flow >0 mls/min) ([5]; Sham/D7, afterload 106.7 mmHg): 9; Percentage functioning at each afterload ([5]; Sham/D7, afterload 106.7 mmHg): 82%; cardiac output ([5]; drug treated diabetic group, pre-load increased (5-20 cm H2O), after-load constant): restored to Sham values; aortic and absolute coronary flows ([5]; drug treated diabetic group, pre-load increased, after-load constant): improved; indicators for ventricular contraction and relaxation (+dP/dt, −dP/dt) ([5]; drug treated versus untreated diabetic group): significantly improved; heart's ability to function at higher after-loads ([5]; drug treated versus untreated diabetic group, constant pre-load): greatly improved; adverse effects on cardiac performance ([5]; drug treatment of normal animals (Sham/D7)): no adverse effects; cardiac function overall ([5]; oral trientine for 7 weeks, Wistar rats with established diabetes of 6 weeks duration): global improvement in cardiac function; trientine treated diabetic hearts still functioning ([5]; when 50% of the untreated diabetic hearts had failed): about 90%; protection of hearts from development of diabetic damage (cardiomyopathy) as judged by histology (diabetic Wistar rats): appears to protect
